Each block holds one molecule with its values, some of them ahead of it. Calls of active or inactive are those of the source. The rule behind the calls is not given here.
What was measured:
[1] = Stability in human serum assessed as full-length compound remaining after 10 mins by anion-exchange HPLC; type: ADME, cell-free; settings: read-out: Stability
[2] = test system: PBMC; test: Stimulation of immune response in human PBMC assessed as induction of RANTES production at 150 ug/ml after 24 hrs; type: functional, cell-based
[3] = test system: PBMC; test: Stimulation of immune response in human PBMC assessed as induction of IL8 production at 150 ug/ml after 24 hrs; type: functional, cell-based
[4] = species on record: Homo sapiens; test: Stimulation of immune response in human pDC assessed as induction of IFNalpha production at 150 ug/ml after 24 hrs; type: functional
[5] = molecular target: T1, Toll-like receptor 7 (Homo sapiens) (UniProt Q9NYK1); test: Agonist activity at human TLR7 expressed in HEK293XL cells assessed as NF-kappaB activation after 18 hrs; type: functional, cell-based
T1 sequence (whole entry): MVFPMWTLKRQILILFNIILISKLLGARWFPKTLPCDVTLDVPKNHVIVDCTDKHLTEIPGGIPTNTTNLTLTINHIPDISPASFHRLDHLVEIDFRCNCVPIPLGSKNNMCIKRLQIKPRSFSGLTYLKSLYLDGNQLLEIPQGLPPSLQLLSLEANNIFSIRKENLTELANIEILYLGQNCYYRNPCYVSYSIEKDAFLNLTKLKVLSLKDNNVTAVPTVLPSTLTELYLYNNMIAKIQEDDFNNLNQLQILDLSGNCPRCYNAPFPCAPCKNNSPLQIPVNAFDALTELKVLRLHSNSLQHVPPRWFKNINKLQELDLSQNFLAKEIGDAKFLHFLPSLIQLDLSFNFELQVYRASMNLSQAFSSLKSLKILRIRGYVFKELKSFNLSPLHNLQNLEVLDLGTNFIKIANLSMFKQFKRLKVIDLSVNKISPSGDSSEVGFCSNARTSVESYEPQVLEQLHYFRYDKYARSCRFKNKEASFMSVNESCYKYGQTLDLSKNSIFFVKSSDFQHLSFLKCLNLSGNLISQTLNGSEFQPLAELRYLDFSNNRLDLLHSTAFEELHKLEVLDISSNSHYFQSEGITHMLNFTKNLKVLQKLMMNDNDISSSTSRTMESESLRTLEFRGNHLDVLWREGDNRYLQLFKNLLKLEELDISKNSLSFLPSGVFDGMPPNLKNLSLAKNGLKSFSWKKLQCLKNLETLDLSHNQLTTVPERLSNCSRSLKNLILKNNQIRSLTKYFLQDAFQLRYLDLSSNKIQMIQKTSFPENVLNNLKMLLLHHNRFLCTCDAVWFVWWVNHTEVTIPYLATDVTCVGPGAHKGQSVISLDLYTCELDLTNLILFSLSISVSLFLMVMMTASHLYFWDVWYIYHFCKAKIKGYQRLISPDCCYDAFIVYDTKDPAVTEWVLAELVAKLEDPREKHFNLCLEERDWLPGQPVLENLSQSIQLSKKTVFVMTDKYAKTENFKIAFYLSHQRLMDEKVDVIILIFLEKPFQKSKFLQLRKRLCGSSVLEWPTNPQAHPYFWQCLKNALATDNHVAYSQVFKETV

[6] = species on record: Homo sapiens; test: Stimulation of immune response in human pDC assessed as induction of MIP1beta production at 150 ug/ml after 24 hrs; type: functional
[7] = test system: PBMC; test: Stimulation of immune response in human PBMC assessed as induction of MIP1alpha production at 150 ug/ml after 24 hrs; type: functional, cell-based
[8] = test system: PBMC; test: Stimulation of immune response in human PBMC assessed as induction of IL12 production at 150 ug/ml after 24 hrs; type: functional, cell-based
[9] = test system: PBMC; test: Stimulation of immune response in human PBMC assessed as induction of IL2R level at 150 ug/ml after 24 hrs; type: functional, cell-based
[10] = test system: PBMC; test: Stimulation of immune response in human PBMC assessed as induction of IFN-gamma production at 150 ug/ml after 24 hrs; type: functional, cell-based
[11] = species on record: Homo sapiens; test: Stimulation of immune response in human pDC assessed as induction of IL12 production at 150 ug/ml after 24 hrs; type: functional
[12] = test system: PBMC; test: Stimulation of immune response in human PBMC assessed as induction of IFNalpha production at 150 ug/ml after 24 hrs; type: functional, cell-based
[13] = test system: PBMC; test: Stimulation of immune response in human PBMC assessed as induction of IL1-beta production at 150 ug/ml after 24 hrs; type: functional, cell-based
[14] = test system: PBMC; test: Stimulation of immune response in human PBMC assessed as induction of MCP1 production at 150 ug/ml after 24 hrs; type: functional, cell-based
[15] = species on record: Homo sapiens; test: Stimulation of immune response in human pDC assessed as induction of MIP1alpha production at 150 ug/ml after 24 hrs; type: functional
[16] = test system: Mus musculus; test: Stimulation of immune response in C57BL/6 mouse assessed as induction of serum IL12 production at 50 mg/kg, sc after 2 hrs by luminex multiplex assay; type: functional, organism-based; parameters: dose 50 mg/kg
[17] = species on record: Homo sapiens; test: Stimulation of immune response in human pDC assessed as induction of TNFalpha production at 150 ug/ml after 24 hrs; type: functional
[18] = test system: PBMC; test: Stimulation of immune response in human PBMC assessed as induction of MIP1beta production at 150 ug/ml after 24 hrs; type: functional, cell-based
[19] = species on record: Homo sapiens; test: Stimulation of immune response in human pDC assessed as induction of IFN-gamma production at 150 ug/ml after 24 hrs; type: functional
[20] = test system: PBMC; test: Stimulation of immune response in human PBMC assessed as induction of IL10 production at 150 ug/ml after 24 hrs; type: functional, cell-based
[21] = test system: PBMC; test: Stimulation of immune response in human PBMC assessed as induction of TNFalpha production at 150 ug/ml after 24 hrs; type: functional, cell-based
[22] = molecular target: T2, Toll-like receptor 8 (Homo sapiens) (UniProt Q9NR97); test: Agonist activity at human TLR8 expressed in HEK293XL cells assessed as NF-kappaB activation after 18 hrs; type: functional, cell-based
T2 sequence (whole entry): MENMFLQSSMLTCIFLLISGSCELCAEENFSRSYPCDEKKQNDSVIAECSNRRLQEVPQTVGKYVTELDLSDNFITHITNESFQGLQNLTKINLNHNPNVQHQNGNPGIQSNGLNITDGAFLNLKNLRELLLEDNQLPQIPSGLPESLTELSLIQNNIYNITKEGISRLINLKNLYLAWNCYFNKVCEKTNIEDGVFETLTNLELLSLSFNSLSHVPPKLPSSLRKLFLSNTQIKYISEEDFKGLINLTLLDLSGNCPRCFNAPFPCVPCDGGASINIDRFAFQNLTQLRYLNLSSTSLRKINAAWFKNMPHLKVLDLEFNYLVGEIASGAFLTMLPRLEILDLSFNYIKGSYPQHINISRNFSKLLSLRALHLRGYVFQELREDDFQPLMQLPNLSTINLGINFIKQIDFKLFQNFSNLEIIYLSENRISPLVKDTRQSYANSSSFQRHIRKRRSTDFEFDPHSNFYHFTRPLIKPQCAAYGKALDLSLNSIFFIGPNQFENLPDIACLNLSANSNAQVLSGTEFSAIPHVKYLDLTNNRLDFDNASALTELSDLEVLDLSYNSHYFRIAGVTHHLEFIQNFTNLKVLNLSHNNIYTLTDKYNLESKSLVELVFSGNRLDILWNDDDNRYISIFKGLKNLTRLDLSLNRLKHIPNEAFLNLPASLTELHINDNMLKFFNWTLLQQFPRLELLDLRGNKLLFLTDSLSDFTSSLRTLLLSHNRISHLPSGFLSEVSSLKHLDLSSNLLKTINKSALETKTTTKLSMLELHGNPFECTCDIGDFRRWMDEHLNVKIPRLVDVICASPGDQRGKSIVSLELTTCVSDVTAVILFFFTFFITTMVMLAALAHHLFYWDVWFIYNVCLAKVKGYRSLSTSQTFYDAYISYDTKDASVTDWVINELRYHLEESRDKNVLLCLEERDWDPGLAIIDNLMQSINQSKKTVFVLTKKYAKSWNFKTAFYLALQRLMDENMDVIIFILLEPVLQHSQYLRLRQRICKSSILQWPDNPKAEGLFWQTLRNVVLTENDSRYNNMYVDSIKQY

remaining at 10 min [1]: 76%
Structure (SMILES): Nc1ccn([C@@H]2O[C@H](COP(=O)(S)O[C@H]3[C@@H](O)[C@H](n4cnc5c(N)ncnc54)O[C@@H]3COP(=O)(S)O[C@H]3[C@@H](O)[C@H](n4cnc5c(=O)[nH]c(N)nc54)O[C@@H]3COP(=O)(S)O[C@H]3[C@@H](O)[C@H](n4ccc(=O)[nH]c4=O)O[C@@H]3COP(=O)(S)O[C@H]3[C@@H](O)[C@H](n4cnc5c(=O)[nH]c(N)nc54)O[C@@H]3COP(=O)(S)O[C@H]3[C@@H](O)[C@H](n4ccc(=O)[nH]c4=O)O[C@@H]3COP(=O)(S)O[C@H]3[C@@H](O)[C@H](n4cnc5c(=O)[nH]c(N)nc54)O[C@@H]3COP(=O)(S)O[C@H]3[C@@H](O)[C@H](n4ccc(=O)[nH]c4=O)O[C@@H]3COP(=O)(S)O[C@H]3[C@@H](O)[C@H](n4ccc(=O)[nH]c4=O)O[C@@H]3COP(=O)(S)O[C@H]3[C@@H](O)[C@H](n4cnc5c(=O)[nH]c(N)nc54)O[C@@H]3COP(=O)(S)O[C@H]3[C@@H](O)[C@H](n4ccc(=O)[nH]c4=O)O[C@H]3CO)[C@@H](OP(=O)(S)OCC(O)COP(=O)(S)O[C@H]3[C@@H](O)[C@H](n4ccc(N)nc4=O)O[C@@H]3COP(=O)(S)O[C@H]3[C@@H](O)[C@H](n4cnc5c(N)ncnc54)O[C@@H]3COP(=O)(S)O[C@H]3[C@@H](O)[C@H](n4cnc5c(=O)[nH]c(N)nc54)O[C@@H]3COP(=O)(S)O[C@H]3[C@@H](O)[C@H](n4ccc(=O)[nH]c4=O)O[C@@H]3COP(=O)(S)O[C@H]3[C@@H](O)[C@H](n4cnc5c(=O)[nH]c(N)nc54)O[C@@H]3COP(=O)(S)O[C@H]3[C@@H](O)[C@H](n4ccc(=O)[nH]c4=O)O[C@@H]3COP(=O)(S)O[C@H]3[C@@H](O)[C@H](n4cnc5c(=O)[nH]c(N)nc54)O[C@@H]3COP(=O)(S)O[C@H]3[C@@H](O)[C@H](n4ccc(=O)[nH]c4=O)O[C@@H]3COP(=O)(S)O[C@H]3[C@@H](O)[C@H](n4ccc(=O)[nH]c4=O)O[C@@H]3COP(=O)(S)O[C@H]3[C@@H](O)[C@H](n4cnc5c(=O)[nH]c(N)nc54)O[C@@H]3COP(=O)(S)O[C@H]3[C@@H](O)[C@H](n4ccc(=O)[nH]c4=O)O[C@@H]3CO)[C@H]2O)c(=O)n1 (stereo in doubt; 6)

Activity [5]: inactive | Activity [22]: Dose-dependent effect
Structure (SMILES): Nc1ccn([C@@H]2O[C@H](COP(=O)(S)O[C@H]3[C@@H](O)[C@H](n4cnc5c(N)ncnc54)O[C@@H]3COP(=O)(S)O[C@H]3[C@@H](O)[C@H](n4cnc5c(=O)[nH]c(N)nc54)O[C@@H]3COP(=O)(S)O[C@H]3[C@@H](O)[C@H](n4ccc(=O)[nH]c4=O)O[C@@H]3COP(=O)(S)O[C@H]3[C@@H](O)[C@H](n4cnc5c(=O)[nH]c(N)nc54)O[C@@H]3COP(=O)(S)O[C@H]3[C@@H](O)[C@H](n4ccc(=O)[nH]c4=O)O[C@@H]3COP(=O)(S)O[C@H]3[C@@H](O)[C@H](n4cnc5c(=O)[nH]c(N)nc54)O[C@@H]3COP(=O)(S)O[C@H]3[C@@H](O)[C@H](n4ccc(=O)[nH]c4=O)O[C@@H]3COP(=O)(S)O[C@H]3[C@@H](O)[C@H](n4ccc(=O)[nH]c4=O)O[C@@H]3COP(=O)(S)O[C@H]3[C@@H](O)[C@H](n4cnc5c(=O)[nH]c(N)nc54)O[C@@H]3COP(=O)(S)O[C@H]3[C@@H](O)[C@H](n4ccc(=O)[nH]c4=O)O[C@H]3CO)[C@@H](OP(=O)(S)OCC(O)COP(=O)(S)O[C@H]3[C@@H](O)[C@H](n4ccc(N)nc4=O)O[C@@H]3COP(=O)(S)O[C@H]3[C@@H](O)[C@H](n4cnc5c(N)ncnc54)O[C@@H]3COP(=O)(S)O[C@H]3[C@@H](O)[C@H](n4cnc5c(=O)[nH]c(N)nc54)O[C@@H]3COP(=O)(S)O[C@H]3[C@@H](O)[C@H](n4ccc(=O)[nH]c4=O)O[C@@H]3COP(=O)(S)O[C@H]3[C@@H](O)[C@H](n4cnc5c(=O)[nH]c(N)nc54)O[C@@H]3COP(=O)(S)O[C@H]3[C@@H](O)[C@H](n4ccc(=O)[nH]c4=O)O[C@@H]3COP(=O)(S)O[C@H]3[C@@H](O)[C@H](n4cnc5c(=O)[nH]c(N)nc54)O[C@@H]3COP(=O)(S)O[C@H]3[C@@H](O)[C@H](n4ccc(=O)[nH]c4=O)O[C@@H]3COP(=O)(S)O[C@H]3[C@@H](O)[C@H](n4ccc(=O)[nH]c4=O)O[C@@H]3COP(=O)(S)O[C@H]3[C@@H](O)[C@H](n4cnc5c(=O)[nH]c(N)nc54)O[C@@H]3COP(=O)(S)O[C@H]3[C@@H](O)[C@H](n4ccc(=O)[nH]c4=O)O[C@@H]3CO)[C@H]2O)c(=O)n1 (stereo in doubt; 5)
Activity [2]: Active | Activity [3]: Active | Activity [4]: inactive | Activity [6]: Active | Activity [7]: Active | Activity [8]: Active | Activity [9]: Active | Activity [10]: Active | Activity [11]: Active | Activity [12]: Active | Activity [13]: Active | Activity [14]: Active | Activity [15]: Active | Activity [16]: inactive | Activity [17]: Active | Activity [18]: Active | Activity [19]: Active | Activity [20]: Active | Activity [21]: Active
